Reference: patent US12371454B2, “Cyclic peptide compound having Kras inhibitory action” (priority 2019, dated 2025)
Positions of bridges follow the written chain, without caps; N, C: chain ends. Non-standard residues stand in square brackets, D forms with d. Residues, ends and D or L forms follow the SMILES beside them. *: point of attachment. hPhe(3-Cl-4-CF3) = N[C@@H](CCc1ccc(C(F)(F)F)c(Cl)c1)C(=O)O; hPhe(3-F,4-CF3) = N[C@@H](CCc1ccc(C(F)(F)F)c(F)c1)C(=O)O; NMePhe(4-CF3) = CN[C@@H](Cc1ccc(C(F)(F)F)cc1)C(=O)O; hPhe(4-CF3) = N[C@@H](CCc1ccc(C(F)(F)F)cc1)C(=O)O; NMePhe(4-Me) = CN[C@@H](Cc1ccc(C)cc1)C(=O)O; NMeNle(6-CHF2) = CN[C@@H](CCCCC(F)F)C(=O)O; NMeGly(cPent) = CN[C@H](C(=O)O)C1CCCC1; Pro(4,4-F2) = O=C(O)[C@@H]1CC(F)(F)CN1; NMeCha = CN[C@@H](CC1CCCCC1)C(=O)O; NMeD = CN[C@@H](CC(=O)O)C(=O)O; CH2CONHtBu = CC(C)(C)NC(=O)C*; NMeL = CN[C@@H](CC(C)C)C(=O)O; Chg = N[C@H](C(=O)O)C1CCCCC1; NMeNle = CCCC[C@H](NC)C(=O)O; d(β3hA) = C[C@@H](N)CC(=O)O; NMeS = CN[C@@H](CO)C(=O)O; NMeA = CN[C@@H](C)C(=O)O; Nle = CCCC[C@H](N)C(=O)O; Piperidide = C1CCN(*)CC1; Pyrrolidide = C1CCN(*)C1; dNMeA = CN[C@H](C)C(=O)O; Ac5c = NC1(C(=O)O)CCCC1; Aze = O=C(O)[C@@H]1CCN1; Ac4c = NC1(C(=O)O)CCC1; CH2CMe2OH = CC(C)(O)C*; Aib = CC(C)(N)C(=O)O; Isopentyl = CC(C)CC*; NEtG = CCNCC(=O)O; Sar = CNCC(=O)O

Biological target: T1, Kras and SOS1 (biotin-tagged human Kras loaded with GDP, His-tagged human SOS1) (Homo sapiens, UniProt P01116, G12D)
T1 construct: made in house; host or cells: E. coli (stated for Kras only)
Assay: Protein-protein interaction inhibition between Kras and SOS1 (KrasGl2D-SOS PPI) using AlphaScreen
Type: binding
Conditions: AlphaScreen; biotin-tagged human Kras loaded with GDP, His-tagged human SOS1; read-out: KRAS G12D-SOS PPI IC50
Summary of the method: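 Binding between SOS1 and Kras is detected as bead-proximity luminescence: illuminate Ni-conjugated donors (680 nm), collect 520-620 nm emission from streptavidin-conjugated acceptors; Kras carries biotin and GDP loaded after purification, SOS1 carries a His tag.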

T1 sequence (P01116 1-188 isoform P01116-2 G12D): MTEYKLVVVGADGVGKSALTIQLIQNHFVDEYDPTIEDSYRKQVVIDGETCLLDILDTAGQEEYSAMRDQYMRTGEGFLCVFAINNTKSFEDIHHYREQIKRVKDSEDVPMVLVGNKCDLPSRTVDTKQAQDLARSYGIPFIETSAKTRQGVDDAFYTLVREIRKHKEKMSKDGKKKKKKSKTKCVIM

CC[C@H](C)[C@@H]1NC(=O)[C@H](CC(C)C)N(C)C(=O)C[C@@H](C(=O)N2CCCC2)NC(=O)[C@H](CC(C)C)N(C)C(=O)C2(CCCC2)NC(=O)[C@@H]2CCCN2C(=O)[C@H](CCc2ccc(C(F)(F)F)c(F)c2)NC(=O)CN(C)C(=O)[C@H](CC2CCCCC2)N(C)C(=O)CN(C)C(=O)CN(C)C1=O [Compound 1489] ([NMeL]I[Sar][Sar][NMeCha][Sar][hPhe(3-F,4-CF3)]P[Ac5c][NMeL]D-Pyrrolidide; lactam N-11)
IC50: 18 nM

CCCC[C@@H]1NC(=O)[C@H](CC(C)C)N(C)C(=O)C[C@@H](C)NC(=O)[C@H](CC(C)C)N(C)C(=O)C2(CCCC2)NC(=O)[C@@H]2CCCN2C(=O)[C@H](CCc2ccc(C(F)(F)F)c(F)c2)NC(=O)CN(C)C(=O)[C@H](CC2CCCCC2)N(C)C(=O)CN(C)C(=O)CN(C)C1=O [Compound 1490] (cyclo([Ac5c][NMeL][d(β3hA)][NMeL][Nle][Sar][Sar][NMeCha][Sar][hPhe(3-F,4-CF3)]P))
IC50: 320 nM

CC(C)C[C@H]1C(=O)N[C@@H](C(C)C)C(=O)N(C)CC(=O)N(C)CC(=O)N(C)[C@@H](CC2CCCCC2)C(=O)N(C)CC(=O)N[C@@H](CCc2ccc(C(F)(F)F)c(F)c2)C(=O)N2CCC[C@H]2C(=O)NC2(CCCC2)C(=O)N(C)[C@@H](CC(C)C)C(=O)N[C@H](C)CC(=O)N1C [Compound 1493] (cyclo([Ac5c][NMeL][d(β3hA)][NMeL]V[Sar][Sar][NMeCha][Sar][hPhe(3-F,4-CF3)]P))
IC50: 100 nM

CC[C@H](C)[C@@H]1NC(=O)[C@H](C)N(C)C(=O)C[C@@H](C)NC(=O)[C@H](C2CCCC2)N(C)C(=O)C2(CCCC2)NC(=O)[C@@H]2CCCN2C(=O)[C@H](CCc2ccc(C(F)(F)F)c(Cl)c2)NC(=O)[C@H]2CCCN2C(=O)[C@H](Cc2ccc(C)cc2)N(C)C(=O)[C@@H]2CCN2C(=O)CN(C)C1=O [Compound 1494] (cyclo([Ac5c][NMeGly(cPent)][d(β3hA)][NMeA]I[Sar][Aze][NMePhe(4-Me)][dP][hPhe(3-Cl-4-CF3)]P))
IC50: 140 nM

CC[C@H](C)[C@@H]1NC(=O)[C@H](CC(C)C)N(C)C(=O)C[C@@H](C(=O)N2CCCCC2)N(C)C(=O)[C@H](CC(C)C)N(C)C(=O)C(C)(C)NC(=O)[C@H](COCC(=O)NC(C)(C)C)N(C)C(=O)[C@H](CCc2ccc(C(F)(F)F)cc2)NC(=O)CN(C)C(=O)[C@H](COCCC(C)C)N(C)C(=O)CN(C)C(=O)CN(C)C1=O [Compound 1502] ([NMeL]I[Sar][Sar][NMeS](Isopentyl)[Sar][hPhe(4-CF3)][NMeS](CH2CONHtBu)[Aib][NMeL][NMeD]-Piperidide; lactam N-11)
IC50: 24 nM

CC[C@H](C)[C@@H]1NC(=O)[C@H](CC(C)C)N(C)C(=O)C[C@@H](C)NC(=O)[C@H](CC(C)C)N(C)C(=O)C2(CCCC2)NC(=O)[C@@H]2CCCN2C(=O)[C@H](CCc2ccc(C(F)(F)F)c(Cl)c2)NC(=O)CN(C)C(=O)[C@H](CC2CCCCC2)N(C)C(=O)CN(C)C(=O)CN(C)C1=O [Compound 1503] (cyclo([Ac5c][NMeL][d(β3hA)][NMeL]I[Sar][Sar][NMeCha][Sar][hPhe(3-Cl-4-CF3)]P))
IC50: 16 nM

CC[C@H](C)[C@@H]1NC(=O)[C@H](C)N(C)C(=O)C[C@@H](C)NC(=O)[C@H](C2CCCC2)N(C)C(=O)C2(CCC2)NC(=O)[C@@H]2CCCN2C(=O)[C@H](CCc2ccc(C(F)(F)F)c(Cl)c2)NC(=O)CN(C)C(=O)[C@H](CC2CCCCC2)N(C)C(=O)CN(C)C(=O)CN(C)C1=O [Compound 1506] (cyclo([Ac4c][NMeGly(cPent)][d(β3hA)][NMeA]I[Sar][Sar][NMeCha][Sar][hPhe(3-Cl-4-CF3)]P))
IC50: 2.9 nM

CC[C@H](C)[C@@H]1NC(=O)[C@H](C)N(C)C(=O)C[C@@H](C)NC(=O)[C@H](C2CCCC2)N(C)C(=O)C2(CCCC2)NC(=O)[C@@H]2CCCN2C(=O)[C@H](CCc2ccc(C(F)(F)F)c(Cl)c2)NC(=O)[C@@H](C)N(C)C(=O)[C@H](Cc2ccc(C(F)(F)F)cc2)N(C)C(=O)[C@@H]2CCN2C(=O)CN(C)C1=O [Compound 1507] (cyclo([Ac5c][NMeGly(cPent)][d(β3hA)][NMeA]I[Sar][Aze][NMePhe(4-CF3)][dNMeA][hPhe(3-Cl-4-CF3)]P))
IC50: 24 nM

CC[C@H](C)[C@@H]1NC(=O)[C@H](CC(C)C)N(C)C(=O)C[C@@H](C)NC(=O)[C@H](CC(C)C)N(C)C(=O)C2(CCCC2)NC(=O)[C@@H]2CC(F)(F)CN2C(=O)[C@H](CCc2ccc(C(F)(F)F)c(F)c2)NC(=O)CN(C)C(=O)[C@H](CC2CCCCC2)N(C)C(=O)CN(C)C(=O)CN(C)C1=O [Compound 1509] (cyclo([Ac5c][NMeL][d(β3hA)][NMeL]I[Sar][Sar][NMeCha][Sar][hPhe(3-F,4-CF3)][Pro(4,4-F2)]))
IC50: 23 nM

CC[C@H](C)[C@@H]1NC(=O)[C@H](C)N(C)C(=O)C[C@@H](C)NC(=O)[C@H](C2CCCC2)N(C)C(=O)C2(CCCC2)NC(=O)[C@@H]2CCCN2C(=O)[C@H](CCc2ccc(C(F)(F)F)c(Cl)c2)NC(=O)[C@@H](C)N(C)C(=O)[C@H](CC2CCCCC2)N(C)C(=O)[C@@H]2CCN2C(=O)[C@H](C)N(C)C1=O [Compound 1510] (cyclo([Ac5c][NMeGly(cPent)][d(β3hA)][NMeA]I[NMeA][Aze][NMeCha][dNMeA][hPhe(3-Cl-4-CF3)]P))
IC50: 110 nM

CC[C@H](C)[C@@H]1NC(=O)[C@H](CC(C)C)N(C)C(=O)C[C@@H](C)NC(=O)[C@H](CC(C)C)N(C)C(=O)C(C)(C)NC(=O)[C@H](COCC(=O)NC(C)(C)C)N(C)C(=O)[C@H](CCc2ccc(C(F)(F)F)c(Cl)c2)NC(=O)CN(C)C(=O)[C@H](COCCC(C)C)N(C)C(=O)[C@@H]2CCN2C(=O)CN(CC)C1=O [Compound 1513] (cyclo([Aib][NMeL][d(β3hA)][NMeL]I[NEtG][Aze][NMeS](Isopentyl)[Sar][hPhe(3-Cl-4-CF3)][NMeS](CH2CONHtBu)))
IC50: 270 nM

CC[C@H](C)[C@@H]1NC(=O)[C@H](CC(C)C)N(C)C(=O)C[C@@H](C)NC(=O)[C@H](CC(C)C)N(C)C(=O)C2(CCCC2)NC(=O)[C@@H]2CCCN2C(=O)[C@H](CCc2ccc(C(F)(F)F)c(F)c2)NC(=O)CN(C)C(=O)[C@H](CCCCC(F)F)N(C)C(=O)CN(C)C(=O)CN(C)C1=O [Compound 1515] (cyclo([Ac5c][NMeL][d(β3hA)][NMeL]I[Sar][Sar][NMeNle(6-CHF2)][Sar][hPhe(3-F,4-CF3)]P))
IC50: 77 nM

CCCC[C@H]1C(=O)N[C@H](C)CC(=O)N(C)[C@@H](CC(C)C)C(=O)N[C@@H]([C@@H](C)CC)C(=O)N(C)CC(=O)N(C)CC(=O)N(C)[C@@H](CC2CCCCC2)C(=O)N(C)CC(=O)N[C@@H](CCc2ccc(C(F)(F)F)c(F)c2)C(=O)N2CCC[C@H]2C(=O)NC2(CCCC2)C(=O)N1C [Compound 1518] (cyclo([Ac5c][NMeNle][d(β3hA)][NMeL]I[Sar][Sar][NMeCha][Sar][hPhe(3-F,4-CF3)]P))
IC50: 370 nM

CC[C@H](C)[C@@H]1NC(=O)[C@H](C)N(C)C(=O)C[C@@H](C)NC(=O)[C@H](C2CCCC2)N(C)C(=O)C2(CCCC2)NC(=O)[C@@H]2CCCN2C(=O)[C@H](CCc2ccc(C(F)(F)F)c(Cl)c2)NC(=O)[C@@H](C)N(C)C(=O)[C@H](Cc2ccc(C(F)(F)F)cc2)N(C)C(=O)CN(C)C(=O)CN(C)C1=O [Compound 1520] (cyclo([Ac5c][NMeGly(cPent)][d(β3hA)][NMeA]I[Sar][Sar][NMePhe(4-CF3)][dNMeA][hPhe(3-Cl-4-CF3)]P))
IC50: 59 nM

CC[C@H](C)[C@@H]1NC(=O)[C@H](CC(C)C)N(C)C(=O)C[C@@H](C)NC(=O)[C@H](C2CCCC2)N(C)C(=O)C2(CCCC2)NC(=O)[C@@H]2CCCN2C(=O)[C@H](CCc2ccc(C(F)(F)F)c(Cl)c2)NC(=O)[C@@H](C)N(C)C(=O)[C@H](Cc2ccc(C)cc2)N(C)C(=O)CN(C)C(=O)CN(C)C1=O [Compound 1521] (cyclo([Ac5c][NMeGly(cPent)][d(β3hA)][NMeL]I[Sar][Sar][NMePhe(4-Me)][dNMeA][hPhe(3-Cl-4-CF3)]P))
IC50: 110 nM

CC[C@H](C)[C@@H]1NC(=O)[C@H](C)N(C)C(=O)C[C@@H](C)NC(=O)[C@H](C2CCCC2)N(C)C(=O)C2(CCCC2)NC(=O)[C@@H]2CCCN2C(=O)[C@H](CCc2ccc(C(F)(F)F)c(Cl)c2)NC(=O)[C@H]2CCCN2C(=O)[C@H](Cc2ccc(C(F)(F)F)cc2)N(C)C(=O)[C@@H]2CCN2C(=O)CN(C)C1=O [Compound 1522] (cyclo([Ac5c][NMeGly(cPent)][d(β3hA)][NMeA]I[Sar][Aze][NMePhe(4-CF3)][dP][hPhe(3-Cl-4-CF3)]P))
IC50: 90 nM

CC[C@H](C)[C@@H]1NC(=O)[C@H](CC(C)C)N(C)C(=O)C[C@@H](C)NC(=O)[C@H](CC(C)C)N(C)C(=O)C(C)(C)NC(=O)[C@H](CC(C)C)N(C)C(=O)[C@H](CCc2ccc(C(F)(F)F)c(F)c2)NC(=O)CN(C)C(=O)[C@H](CCCCC(F)F)N(C)C(=O)CN(C)C(=O)CN(C)C1=O [Compound 1526] (cyclo([Aib][NMeL][d(β3hA)][NMeL]I[Sar][Sar][NMeNle(6-CHF2)][Sar][hPhe(3-F,4-CF3)][NMeL]))
IC50: 100 nM

CC(C)C[C@H]1C(=O)N[C@@H](C2CCCCC2)C(=O)N(C)CC(=O)N(C)CC(=O)N(C)[C@@H](CC2CCCCC2)C(=O)N(C)CC(=O)N[C@@H](CCc2ccc(C(F)(F)F)c(F)c2)C(=O)N2CCC[C@H]2C(=O)NC2(CCCC2)C(=O)N(C)[C@@H](CC(C)C)C(=O)N[C@H](C)CC(=O)N1C [Compound 1527] (cyclo([Ac5c][NMeL][d(β3hA)][NMeL][Chg][Sar][Sar][NMeCha][Sar][hPhe(3-F,4-CF3)]P))
IC50: 190 nM

CC[C@H](C)[C@@H]1NC(=O)[C@H](CC(C)C)N(C)C(=O)C[C@@H](C(=O)N2CCCCC2)N(C)C(=O)[C@H](CC(C)C)N(C)C(=O)C(C)(C)NC(=O)[C@H](COCC(C)(C)O)N(C)C(=O)[C@H](CCc2ccc(C(F)(F)F)cc2)NC(=O)CN(C)C(=O)[C@H](COCCC(C)C)N(C)C(=O)CN(C)C(=O)CN(CC)C1=O [Compound 1528] ([NMeL]I[NEtG][Sar][NMeS](Isopentyl)[Sar][hPhe(4-CF3)][NMeS](CH2CMe2OH)[Aib][NMeL][NMeD]-Piperidide; lactam N-11)
IC50: 41 nM
